According to patent US9636339B2, “Phenyl-dihydropyridine derivatives as aldosterone synthase inhibitors” (Hoffmann-La Roche Inc., priority 2013, dated 2017):
pEC50: −log10 of the molar value.

Key:
human CYP11B1 = human CYP11B1 (Homo sapiens (Human), UniProt P15538); test: G-402 cellular enzyme assay, human CYP11B1 (cortisol release); assay type: cell-based; conditions: G-402 cells, 1 μM Deoxycortisol
From the text: (§1) Herein we identified the use of the G-402 cell line as a host cell to ectopically express (transiently or stably) enzymes of the CYP11 family. Specifically we developed stable G-402 cells expressing ectopically human CYP11B1, human CYP11B2, human CYP11A1, cynmolgus CYP11B1 or cynomolgus CYP11B2 enzyme activity. Importantly the identified cell line G-402 expresses co-factors (adrenodoxin and adrenodoxin reductase) important for the activity of the CYP11 family and no relevant enzyme activity of the CYP11 family (in comparison to H295R cells) was detected in these cells. Therefore the G-402 cell line is uniquely suited as a host cell for the ectopic expression of enzymes from the CYP11 family. G-402 cells can be obtained from ATCC (CRL-1440) and were originally derived from a renal leiomyoblastoma.
(§2) The expression plasmids contains the ORF for either human/cyno CYP11B1 or CYP11B2 under the control of a suitable promoter (CMV-promoter) and a suitable resistance marker (neomycin). Using standard techniques the expression plasmid is transfected into G-402 cells and these cells are then selected for expressing the given resistance markers. Individual cell-clones are then selected and assessed for displaying the desired enzymatic activity using 11-Deoxycorticosterone (Cyp11B2) or 11-Deoxycortisol (Cyp11B1) as a substrate.
(§3) G-402 cells expressing CYP11 constructs were established as described above and maintained in McCoy's 5a Medium Modified, ATCC Catalog No. 30-2007 containing 10% FCS and 400 μg/ml G418 (Geneticin) at 37° C. under an atmosphere of 5% CO2/95% air. Cellular enzyme assays were performed in DMEM/F12 medium containing 2.5% charcoal treated FCS and appropriate concentration of substrate (0.3-10 uM 11-Deoxycorticosterone, 11-Deoxycortisol or Corticosterone). For assaying enzymatic activity, cells were plated onto 96 well plates and incubated for 16 h. An aliquot of the supernatant is then transferred and analyzed for the concentration of the expected product (Aldosterone for CYP11B2; Cortisol for CYP11B1). The concentrations of these steroids can be determined using HTRF assays from CisBio analyzing either Aldosterone or Cortisol.
(§4) Inhibition of the release of produced steroids can be used as a measure of the respective enzyme inhibition by test compounds added during the cellular enzyme assay. The dose dependent inhibition of enzymatic activity by a compound is calculated by means of plotting added inhibitor concentrations (x-axes) vs. measured steroid/product level (y-axes). The inhibition is then calculated by fitting the following 4-parameter sigmoidal function (Morgan-Mercer-Flodin (MMF) model) to the raw data points using the least squares method:
(§5) [formula] wherein, A is the maximum y value, B is the EC50 factor determined using XLFit, C is the minimum y value and D is the slope value.
(§6) EC50 values for compounds claimed herein were tested with the G402-based assay system described. Cyp11B2 enzyme activity was tested in presence of 1 μM Deoxycorticosterone and variable amounts of inhibitors; Cyp11B1 enzyme activity was tested in presence of 1 μM Deoxycortisol and variable amounts of inhibitors.

human CYP11B2 = human CYP11B2 (Homo sapiens (Human), UniProt P19099); test: G-402 cellular enzyme assay, human CYP11B2 (aldosterone release); assay type: cell-based; conditions: G-402 cells, 1 μM Deoxycorticosterone
From the text: as §1, §2, §3, §4, §5, §6

human CYP11B2, sequence (P19099 25-503): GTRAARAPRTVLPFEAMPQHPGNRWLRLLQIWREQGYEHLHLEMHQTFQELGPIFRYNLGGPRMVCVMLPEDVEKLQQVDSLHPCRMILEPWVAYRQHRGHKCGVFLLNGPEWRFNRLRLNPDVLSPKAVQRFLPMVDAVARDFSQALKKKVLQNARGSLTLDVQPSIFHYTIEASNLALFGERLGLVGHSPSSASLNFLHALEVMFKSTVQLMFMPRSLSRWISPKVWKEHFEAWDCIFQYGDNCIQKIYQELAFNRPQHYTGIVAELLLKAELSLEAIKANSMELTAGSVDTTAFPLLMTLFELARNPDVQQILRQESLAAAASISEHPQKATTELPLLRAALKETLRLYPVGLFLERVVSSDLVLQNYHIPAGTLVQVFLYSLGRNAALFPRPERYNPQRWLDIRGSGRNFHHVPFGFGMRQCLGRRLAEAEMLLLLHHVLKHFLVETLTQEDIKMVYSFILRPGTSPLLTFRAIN
human CYP11B1, sequence (P15538 25-503): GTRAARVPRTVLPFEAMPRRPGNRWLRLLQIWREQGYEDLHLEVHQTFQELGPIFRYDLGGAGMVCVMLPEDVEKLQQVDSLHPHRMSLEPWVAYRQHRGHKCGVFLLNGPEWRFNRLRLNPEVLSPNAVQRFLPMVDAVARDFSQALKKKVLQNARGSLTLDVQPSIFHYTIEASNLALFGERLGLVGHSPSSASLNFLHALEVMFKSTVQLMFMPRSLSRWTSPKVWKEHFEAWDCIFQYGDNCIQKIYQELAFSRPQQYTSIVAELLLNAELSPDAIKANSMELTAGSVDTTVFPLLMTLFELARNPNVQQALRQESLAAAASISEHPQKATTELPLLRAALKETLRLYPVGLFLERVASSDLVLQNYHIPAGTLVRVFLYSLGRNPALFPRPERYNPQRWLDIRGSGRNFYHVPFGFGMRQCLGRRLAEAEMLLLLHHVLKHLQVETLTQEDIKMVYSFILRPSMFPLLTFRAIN

SMILES: CCOC(=O)CC1CCc2c(-c3ccc(C(F)(F)F)c(F)c3)cncc21 (racemic) [Example 1, (rac)-Ethyl 2-[4-[3-fluoro-4-(trifluoromethyl)phenyl]-6,7-dihydro-5H-cyclopenta[c]pyridin-7-yl]acetate]
- pEC50 (human CYP11B1): 7.08
- pEC50 (human CYP11B2): 8.05

SMILES: CNC(=O)CC1CCc2c(-c3ccc(C(F)(F)F)c(F)c3)cncc21 (racemic) [Example 2, (rac)-2-[4-[3-Fluoro-4-(trifluoromethyl)phenyl]-6,7-dihydro-5H-cyclopenta[c]pyridin-7-yl]-N-methyl-acetamide]
- pEC50 (human CYP11B1): 6.70
- pEC50 (human CYP11B2): 7.77

SMILES: CCNC(=O)CC1CCc2c(-c3ccc(C(F)(F)F)c(F)c3)cncc21 (racemic) [Example 3, (rac)-2-[4-[3-Fluoro-4-(trifluoromethyl)phenyl]-6,7-dihydro-5H-cyclopenta[c]pyridin-7-yl]-N-ethyl-acetamide]
- pEC50 (human CYP11B1): 7.16
- pEC50 (human CYP11B2): 7.89

SMILES: CCCNC(=O)CC1CCc2c(-c3ccc(C(F)(F)F)c(F)c3)cncc21 (racemic) [Example 4, (rac)-2-[4-[3-Fluoro-4-(trifluoromethyl)phenyl]-6,7-dihydro-5H-cyclopenta[c]pyridin-7-yl]-N-propyl-acetamide]
- pEC50 (human CYP11B1): 6.95
- pEC50 (human CYP11B2): 7.68

SMILES: O=C(CC1CCc2c(-c3ccc(C(F)(F)F)c(F)c3)cncc21)NC1CC1 (racemic) [Example 5, (rac)-N-Cyclopropyl-2-[4-[3-fluoro-4-(trifluoromethyl)phenyl]-6,7-dihydro-5H-cyclopenta[c]pyridin-7-yl]acetamide]
- pEC50 (human CYP11B1): 6.66
- pEC50 (human CYP11B2): 7.89

SMILES: O=C(CC1CCc2c(-c3ccc(C(F)(F)F)c(F)c3)cncc21)NCC1CC1 (racemic) [Example 6, (rac)-N-(Cyclopropylmethyl)-2-[4-[3-fluoro-4-(trifluoromethyl)phenyl]-6,7-dihydro-5H-cyclopenta[c]pyridin-7-yl]acetamide]
- pEC50 (human CYP11B1): 6.48
- pEC50 (human CYP11B2): 7.62

SMILES: COCCNC(=O)CC1CCc2c(-c3ccc(C(F)(F)F)c(F)c3)cncc21 (racemic) [Example 7, (rac)-2-[4-[3-Fluoro-4-(trifluoromethyl)phenyl]-6,7-dihydro-5H-cyclopenta[c]pyridin-7-yl]-N-(2-methoxyethyl)acetamide]
- pEC50 (human CYP11B1): 6.24
- pEC50 (human CYP11B2): 7.49

SMILES: O=C(CC1CCc2c(-c3ccc(C(F)(F)F)c(F)c3)cncc21)N1CCCCC1 (racemic) [Example 8, (rac)-2-[4-[3-Fluoro-4-(trifluoromethyl)phenyl]-6,7-dihydro-5H-cyclopenta[c]pyridin-7-yl]-1-(1-piperidyl)ethanone]
- pEC50 (human CYP11B1): 8.00
- pEC50 (human CYP11B2): 8.70

SMILES: O=C(CC1CCc2c(-c3ccc(C(F)(F)F)c(F)c3)cncc21)N1CCOCC1 (racemic) [Example 9, (rac)-2-[4-[3-Fluoro-4-(trifluoromethyl)phenyl]-6,7-dihydro-5H-cyclopenta[c]pyridin-7-yl]-1-morpholino-ethanone]
- pEC50 (human CYP11B1): 6.82
- pEC50 (human CYP11B2): 7.70

SMILES: O=C(CC1CCc2c(-c3ccc(C(F)(F)F)c(F)c3)cncc21)Nc1ccon1 (racemic) [Example 10, (rac)-2-[4-[3-Fluoro-4-(trifluoromethyl)phenyl]-6,7-dihydro-5H-cyclopenta[c]pyridin-7-yl]-N-isoxazol-3-yl-acetamide]
- pEC50 (human CYP11B1): 6.74
- pEC50 (human CYP11B2): 7.77

SMILES: O=C(CC1CCc2c(-c3ccc(C(F)(F)F)c(F)c3)cncc21)Nc1cc[nH]n1 (racemic) [Example 11, (rac)-2-[4-[3-Fluoro-4-(trifluoromethyl)phenyl]-6,7-dihydro-5H-cyclopenta[c]pyridin-7-yl]-N-(1H-pyrazol-3-yl)acetamide]
- pEC50 (human CYP11B1): 7.52
- pEC50 (human CYP11B2): 8.10

SMILES: CN(C)C(=O)CC1CCc2c(-c3ccc(C(F)(F)F)cc3F)cncc21 (racemic) [Example 13, (rac)-2-[4-[2-Fluoro-4-(trifluoromethyl)phenyl]-6,7-dihydro-5H-cyclopenta[c]pyridin-7-yl]-N,N-dimethyl-acetamide]
- pEC50 (human CYP11B1): 5.03
- pEC50 (human CYP11B2): 7.17

SMILES: CCN(C)C(=O)CC1CCc2c(-c3ccc(C(F)(F)F)cc3F)cncc21 (racemic) [Example 14, (rac)-N-Ethyl-2-[4-[2-fluoro-4-(trifluoromethyl)phenyl]-6,7-dihydro-5H-cyclopenta[c]pyridin-7-yl]-N-methyl-acetamide]
- pEC50 (human CYP11B1): 5.67
- pEC50 (human CYP11B2): 7.36

SMILES: CC(C)N(C)C(=O)CC1CCc2c(-c3ccc(C(F)(F)F)cc3F)cncc21 (racemic) [Example 15, (rac)-2-[4-[2-Fluoro-4-(trifluoromethyl)phenyl]-6,7-dihydro-5H-cyclopenta[c]pyridin-7-yl]-N-isopropyl-N-methyl-acetamide]
- pEC50 (human CYP11B1): 5.88
- pEC50 (human CYP11B2): 7.74

SMILES: CN(C(=O)CC1CCc2c(-c3ccc(C(F)(F)F)cc3F)cncc21)C1CC1 (racemic) [Example 16, (rac)-N-Cyclopropyl-2-[4-[2-fluoro-4-(trifluoromethyl)phenyl]-6,7-dihydro-5H-cyclopenta[c]pyridin-7-yl]-N-methyl-acetamide]
- pEC50 (human CYP11B1): 6.68
- pEC50 (human CYP11B2): 8.22

SMILES: CCN(C(=O)CC1CCc2c(-c3ccc(C(F)(F)F)cc3F)cncc21)C1CC1 (racemic) [Example 17, (rac)-N-Cyclopropyl-N-ethyl-2-[4-[2-fluoro-4-(trifluoromethyl)phenyl]-6,7-dihydro-5H-cyclopenta[c]pyridin-7-yl]acetamide]
- pEC50 (human CYP11B1): 6.13
- pEC50 (human CYP11B2): 7.54

SMILES: O=C(CC1CCc2c(-c3ccc(C(F)(F)F)cc3F)cncc21)N1CCC1 (racemic) [Example 18, (rac)-1-(Azetidin-1-yl)-2-[4-[2-fluoro-4-(trifluoromethyl)phenyl]-6,7-dihydro-5H-cyclopenta[c]pyridin-7-yl]ethanone]
- pEC50 (human CYP11B1): 5.57
- pEC50 (human CYP11B2): 7.32

SMILES: O=C(CC1CCc2c(-c3ccc(C(F)(F)F)cc3F)cncc21)N1CC(CO)C1 (racemic) [Example 19, (rac)-2-[4-[2-Fluoro-4-(trifluoromethyl)phenyl]-6,7-dihydro-5H-cyclopenta[c]pyridin-7-yl]-1-[3-(hydroxymethyl)azetidin-1-yl]ethanone]
- pEC50 (human CYP11B1): 5.94
- pEC50 (human CYP11B2): 7.35

SMILES: COC1CN(C(=O)CC2CCc3c(-c4ccc(C(F)(F)F)cc4F)cncc32)C1 (racemic) [Example 20, (rac)-2-[4-[2-Fluoro-4-(trifluoromethyl)phenyl]-6,7-dihydro-5H-cyclopenta[c]pyridin-7-yl]-1-(3-methoxyazetidin-1-yl)ethanone]
- pEC50 (human CYP11B1): 5.83
- pEC50 (human CYP11B2): 7.28

SMILES: O=C(CC1CCc2c(-c3ccc(C(F)(F)F)cc3F)cncc21)N1CCCC1 (racemic) [Example 21, (rac)-2-[4-[2-Fluoro-4-(trifluoromethyl)phenyl]-6,7-dihydro-5H-cyclopenta[c]pyridin-7-yl]-1-pyrrolidin-1-yl-ethanone]
- pEC50 (human CYP11B1): 6.29
- pEC50 (human CYP11B2): 7.92

SMILES: C[C@H]1CCCN1C(=O)CC1CCc2c(-c3ccc(C(F)(F)F)cc3F)cncc21 (mixture of isomers) [Example 22, (rac)-2-[4-[2-Fluoro-4-(trifluoromethyl)phenyl]-6,7-dihydro-5H-cyclopenta[c]pyridin-7-yl]-1-[(2S)-2-methylpyrrolidin-1-yl]ethanone]
- pEC50 (human CYP11B1): 6.56
- pEC50 (human CYP11B2): 8.22

SMILES: CCOC(=O)CC1CCCc2c(-c3ccc(C(F)(F)F)cc3F)cncc21 (racemic) [Example 23, (rac)-Ethyl 2-[4-[2-fluoro-4-(trifluoromethyl)phenyl]-5,6,7,8-tetrahydroisoquinolin-8-yl]acetate]
- pEC50 (human CYP11B1): 5.72
- pEC50 (human CYP11B2): 7.57
